This note sets out measurements from BindingDB's records for doi:10.1016/j.bmc.2006.09.055 (University of Cape Town, 2007).

The target in the assay is T1, Falcipain 2 (Plasmodium falciparum, UniProt Q9N6S8).
T1 sequence (Q9N6S8 whole entry): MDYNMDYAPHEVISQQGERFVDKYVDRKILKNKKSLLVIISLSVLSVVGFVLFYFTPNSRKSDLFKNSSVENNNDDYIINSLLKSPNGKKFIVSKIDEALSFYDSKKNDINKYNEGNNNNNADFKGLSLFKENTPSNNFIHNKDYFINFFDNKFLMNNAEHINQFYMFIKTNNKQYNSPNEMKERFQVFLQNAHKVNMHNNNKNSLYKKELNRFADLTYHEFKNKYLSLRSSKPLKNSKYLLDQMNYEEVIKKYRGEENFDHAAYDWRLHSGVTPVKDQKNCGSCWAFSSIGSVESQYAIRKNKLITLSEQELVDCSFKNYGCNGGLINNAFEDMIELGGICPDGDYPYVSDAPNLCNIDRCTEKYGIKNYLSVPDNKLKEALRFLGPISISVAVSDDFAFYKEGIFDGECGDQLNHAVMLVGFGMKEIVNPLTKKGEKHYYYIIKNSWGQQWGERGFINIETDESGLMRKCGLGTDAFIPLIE
The assay is described as follows: Falcipain-2 Inhibition Assay. As to conditions: pH 5.5; 22 °C. How it is done: IC50 values against the recombinant falcipain-2 were determined by incubating protein with different concentrations of inhibitors in reaction buffer after addition of the substrate. Fluorescence was continuously monitored for 30 min at room temperature in a Labsystems Fluoroscan Ascent spectrofluorometer. IC50 values were determined from plots of activity over inhibitor concentration with GraphPad Prism software.

`NC(=S)NN=Cc1ccc(O)cc1O` [2,4-dihydroxybenzaldehyde thiosemicarbazone]: the IC50 is > 20 µM.

For orientation: IC50 means the concentration that gives 50% inhibition. High values mean weaker potency, low ones greater potency.
